Data taken from US11965894B2, “Method of diagnosis of drug induced liver injury” (BIOPREDICTIVE, priority 2017, dated 2024).

Tests used:
[1] = Serum miR-122 by LNA-based relative quantitative PCR in DILI cases; type: in vivo, human
Procedure: Total RNA, including miRNA was extracted from 200 μl of serum, using a commercial column-based system (Exiqon, Denmark) following the manufacturer's instructions. RNA synthetic control templates (Exiqon, Denmark) were introduced to provide controls for the quality of the RNA isolation. Serum levels of miR-122 and nine endogenous miRNAs as potential candidates for reference miRNAs were assayed using the Locked Nucleic Acid (LNA™)-based miRNA relative quantitative PCR with a SYBR® Green detection. cDNA synthesis and real time PCR were performed using the miRCURY LNA™ Universal RT cDNA Synthesis Kit (Exiqon, Denmark) and miRCURY LNA™ Universal RT microRNA PCR system (Exiqon), respectively. Two additional RNA spike-ins were also introduced to provide controls for the cDNA synthesis reaction and the PCR. Quantitative PCR was done on the LightCycler® 480 (Roche Applied Science) according to the manufacturer's instructions. The amplification curves were analyzed using the Roche LC software, both for the determination of cycle threshold (Ct) and for melting curve analysis. Ct values were then processed using the analysis software GenEx® (MultiD Analysis AB). […] Ct values for miR-122 were normalized with Ct value of miR-23a-3p. Levels of serum miR-122 were expressed in relative quantities calculated by the equation 2^−ΔCt.

[2] = FibroTest and ActiTest scores in DILI cases; type: in vivo, human; settings: for FibroTest: single followed DILI case
Procedure: The Fibrotest® combines five markers: alpha2-macroglobulin, haptoglobin, apolipoprotein A2, total bilirubin and gamma-glutamyl transpeptidase (GGT), and adjusts with sex and age. […] It is performed in vitro on a biological sample (blood or serum) that has been harvested from a patient.
The ActiTest is calculated using an original combination of six highly concentrated biochemical markers, which are easy to assess. The ActiTest offers a non invasive alternative for measuring necro inflammatory activity in patients with chronic hepatitis C or B. The ActiTest combines alpha2-macroglobulin, haptoglobin, apolipoprotein A1, total bilirubin, GGT, and ALT, parameters adjusted for patient's age and gender.

[3] = healthy volunteers receiving the drug, ref [13]; cited from earlier work
[4] = in vivo
Procedure: Measures of biochemical markers were performed accordingly to the art, and analyses of ActiTest® and FibroTest® were made as described in the art and in WO 2002/016949.
Comparisons between medians (95% confidence interval [CI]) used the Mann-Whitney test with Bonferroni correction, and the Tukey-Kramer multiple comparison procedure for analyses of variance of the three repeated measures. Correlation between test values was estimated using the Pearson coefficient, expressed with a 95% CI; according to the number of comparisons, only a P value <0.01 was considered significant. NCSS-9 software was used.

[5] = DILI cases attributed to the drug, at inclusion

CC(=O)Nc1ccc(O)cc1 [APAP, acetaminophen]
miR-122 compared with MTX cases ([1]; DILI cases, at baseline): significantly lower
miR-122 (lowest) ([1]; single DILI case with severe malnutrition): −0.8
ActiTest median [2, 5]: 0.99
FibroTest ([2]; at 8-12 weeks): 0.53
FibroTest ([2]; one month later): 0.47
ApoA1 regulation in ALT responders compared with ALT non-responders [3]: three-fold down-regulation

CCOC(=O)Nc1ccc(NCc2ccc(F)cc2)nc1N [flupirtine]
ApoA1 compared with normal ranges observed with methotrexate and others [4]: dramatic decrease
ApoA1 evolution compared with HAPTO [4]: much quicker normalization
ApoA1 median [4]: 0.27 g/L
BILI compared with normal ranges observed with methotrexate and others [4]: dramatic increase
BILI median [4]: 335 µmol/L
HAPTO compared with normal ranges observed with methotrexate and others [4]: dramatic decrease
HAPTO median [4]: 0.10 g/L
FibroTest median [2, 5]: 0.99

CN(Cc1cnc2nc(N)nc(N)c2n1)c1ccc(C(=O)N[C@@H](CCC(=O)O)C(=O)O)cc1 [methotrexate]
GGT dynamics compared with other drugs [4]: no decrease
miR-122 median ([1]; serum, DILI cases attributed to the drug, at inclusion, relative quantities normalized with miR-23a-3p): 7.54
FibroTest ([2]; 877 days later): 0.52
FibroTest ([2]; at 8-12 weeks): 0.51

CCN1CCN(C(=O)N[C@@H](C(=O)N[C@@H]2C(=O)N3[C@@H]2SC(C)(C)[C@@H]3C(=O)O)c2ccccc2)C(=O)C1=O [piperacillin, piperacillin-tazobactam]
GGT median [4]: 678 IU/L
